Results: patent US20240327764A1, “Manufacturing a Distilled Spirit Based Functional Ingredient” (priority 2022, published 2024)

Key:
MAO A = molecular target: T1, MAO A (Homo sapiens, UniProt P21397); experiment: MAO A inhibitory activity assay (% inhibition); format: biochemical; conditions: terpene added at 0.5% (v/v) to Don Julio Añejo (40% ABV) versus 40% ethanol
T1 sequence (P21397 1-527): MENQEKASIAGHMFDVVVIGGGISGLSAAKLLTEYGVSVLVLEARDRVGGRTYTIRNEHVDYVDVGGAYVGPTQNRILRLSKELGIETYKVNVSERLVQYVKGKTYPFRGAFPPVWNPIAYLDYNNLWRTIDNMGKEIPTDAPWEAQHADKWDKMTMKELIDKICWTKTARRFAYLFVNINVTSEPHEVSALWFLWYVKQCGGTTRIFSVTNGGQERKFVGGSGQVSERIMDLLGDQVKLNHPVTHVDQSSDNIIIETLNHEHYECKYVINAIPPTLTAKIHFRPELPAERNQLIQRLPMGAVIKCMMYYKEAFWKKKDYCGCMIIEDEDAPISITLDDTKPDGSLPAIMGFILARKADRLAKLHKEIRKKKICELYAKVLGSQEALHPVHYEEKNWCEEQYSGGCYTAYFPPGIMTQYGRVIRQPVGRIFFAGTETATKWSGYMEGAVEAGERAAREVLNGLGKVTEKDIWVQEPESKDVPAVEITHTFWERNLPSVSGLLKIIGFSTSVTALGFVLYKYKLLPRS
Description: (§1) U.S. […] The contents of this document are incorporated herein by reference, but briefly, methods that include reverse osmosis and low-pressure evaporation to provide retentates with significant concentrations of these inhibitors are described. In addition, details of assay methods for monoamine oxidase activity (and therefore inhibition thereof) and for ethanol content are provided.

MAO B = molecular target: T2, MAO B (Homo sapiens, UniProt P27338); experiment: MAO B inhibitory activity assay (% inhibition); format: biochemical; conditions: terpene added at 0.5% (v/v) to Don Julio Añejo (40% ABV) versus 40% ethanol
T2 sequence (P27338 1-520): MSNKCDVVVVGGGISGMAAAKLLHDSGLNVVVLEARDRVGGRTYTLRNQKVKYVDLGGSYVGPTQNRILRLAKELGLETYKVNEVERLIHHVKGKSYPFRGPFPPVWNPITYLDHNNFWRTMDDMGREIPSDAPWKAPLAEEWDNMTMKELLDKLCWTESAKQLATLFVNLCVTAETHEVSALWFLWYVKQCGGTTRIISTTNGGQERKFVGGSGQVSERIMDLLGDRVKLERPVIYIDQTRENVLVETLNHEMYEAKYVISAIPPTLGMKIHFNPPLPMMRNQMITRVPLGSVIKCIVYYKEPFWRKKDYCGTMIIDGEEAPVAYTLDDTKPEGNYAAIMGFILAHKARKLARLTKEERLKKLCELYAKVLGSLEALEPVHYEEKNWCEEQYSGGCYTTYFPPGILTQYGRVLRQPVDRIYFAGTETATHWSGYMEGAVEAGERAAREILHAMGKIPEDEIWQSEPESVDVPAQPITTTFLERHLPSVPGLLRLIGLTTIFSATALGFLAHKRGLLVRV
Description: as §1

Δ % Inhibition MAO A (DJA + terpene) − (ETOH + terpene) (MAO A): 9%
Δ % Inhibition MAO B (DJA + terpene) − (ETOH + terpene) (MAO B): 20%
Structure (SMILES): C=C(C)[C@@H]1CCC2=CCC[C@@H](C)[C@]2(C)C1 [valencene]
